One substance from patent publication US20230046416A1 (Soteria Biotherapeutics, Inc., priority 2019, published 2023) can be followed below.

The test deals with AZ21. Nature of the test: Biolayer interferometry, Ab59 binding to immobilized AZ21. As for the experimental part: Binding kinetics between BCl-2 fusion protein Ab59 and AZ-21 was assayed by biolayer interferometry. […] Curves represent measured data points on an Octet RED384.
In general terms: Biolayer interferometry detects binding as a change in optical thickness at a sensor tip.

AZ21, sequence (P10415 1-207 C158A limits assumed): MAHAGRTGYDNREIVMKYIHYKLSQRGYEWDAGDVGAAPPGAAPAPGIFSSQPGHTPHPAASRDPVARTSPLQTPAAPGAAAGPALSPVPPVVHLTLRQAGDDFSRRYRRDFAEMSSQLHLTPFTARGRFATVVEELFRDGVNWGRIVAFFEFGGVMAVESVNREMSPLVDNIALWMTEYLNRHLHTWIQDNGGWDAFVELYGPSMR

Regarding “Ab59: heterodimeric Fc fusion protein: BCl-2 C158A linked to a human IgG1 Fc, plus a second human IgG1 Fc domain”, the “binding to AZ21 in the presence of ABT-199” value (with ABT-199, FIG. 25B) was “potent and reversible binding”. In addition, the “binding to AZ21 in the absence of ABT-199” value (without ABT-199, FIG. 25B) is on record as “no significant binding”.
